These results are taken from PMC8154229 (ACS Omega, 2021).

In the test the target is human H1R (Homo sapiens, UniProt P35367). The class given is binding. The settings on record: between 13 and 17.
Sequence of human H1R (P35367 whole entry): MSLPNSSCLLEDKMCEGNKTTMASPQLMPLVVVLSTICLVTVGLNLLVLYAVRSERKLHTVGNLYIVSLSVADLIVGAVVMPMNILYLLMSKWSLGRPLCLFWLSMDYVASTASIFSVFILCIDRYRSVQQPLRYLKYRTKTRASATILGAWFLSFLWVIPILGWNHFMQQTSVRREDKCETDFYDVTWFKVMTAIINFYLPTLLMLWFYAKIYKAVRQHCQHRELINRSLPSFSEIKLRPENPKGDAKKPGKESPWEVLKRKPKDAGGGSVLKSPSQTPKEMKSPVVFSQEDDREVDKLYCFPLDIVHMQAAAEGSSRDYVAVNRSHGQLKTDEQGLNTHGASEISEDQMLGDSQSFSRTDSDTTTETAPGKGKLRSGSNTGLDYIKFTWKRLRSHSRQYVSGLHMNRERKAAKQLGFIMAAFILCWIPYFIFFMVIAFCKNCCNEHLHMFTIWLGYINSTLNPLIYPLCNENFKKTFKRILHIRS

On to `CN1CCC(=C2c3ccccc3CCc3ccccc32)CC1` [Compound 13, 4-(10,11-Dihydro-5H-dibenzo[a,d][7]annulen-5-ylidene)-1-methylpiperidine], for which the “fold difference in affinity” value is recorded as 100 fold.
